Measured values reported in patent US5571685A (priority 1992, dated 1996).
Where two headings read alike, the source gives them in different places.

Columns and labels:
[1] = molecular target: T1, morphinone reductase (Pseudomonas putida, UniProt Q51990); experiment: biochemical; design: initiator Met absent; species or system Pseudomonas putida M10; conditions: for remaining activity at 1000 µM: 1 mM; for remaining activity at 1000 µM / remaining activity at 500 µM: read-out: Activity as percentage of control activity; for Inhibition of enzyme (in words): pre-incubation with purified enzyme
Description: Assays were carried out at 30° C.
Purified enzyme was incubated with the following possible inhibitors: copper sulphate, the thiol-blocking agent p-hydroxymercuribenzoate (pHMB), the thiol-reducing agent dithiothreitol (DTT) and the metal-complexing agents ethylenediaminetetraacetic acid (EDTA) and 8- hydroxyquinoline (8HQ). Incubation was in the standard assay mixture without codeinone or NADH, firstly for 30 min at room temperature and secondly for 16 hours at 4° C. The enzyme concentration was approximately 3.3 μg/ml, 1/100 that of the purified enzyme stock.

[2] = molecular target: T1, morphinone reductase; conditions: for Enzyme activity against compound as substrate: forward (reduction) direction, with NADH; for Enzyme activity in the reverse direction: reverse reaction
[3] = molecular target: T1, morphinone reductase; experiment: Inhibition of the reaction with codeinone by compounds added to the standard assay mixture; format: biochemical, Pseudomonas putida M10; design: initiator Met absent; conditions: for Inhibition of the reaction with codeinone: added at 0.3 mM to the standard assay mixture
Description: Enzyme activity was tested with a variety of substrates.

[4] = molecular target: T2, deflavo-morphinone reductase (Pseudomonas putida, UniProt Q51990); experiment: Reconstitution of deflavo-morphinone reductase by incubation with flavins; format: biochemical, Pseudomonas putida M10
T2 construct: FMN removed by ammonium sulphate (apoenzyme); initiator Met absent
Description: Flavin was dissociated from morphinone reductase by boiling for 3 minutes and removal of denatured protein by ultrafiltration. […] Thin layer chromatography (TLC) of flavins was performed on silica plates using solvent systems 2 and 4 of Fazekas and Kokai (Met. Enzymol. (1971) 18B:385-398), viz. 12:3:5 n-butanol:acetic acid:water and 2% disodium hydrogen phosphate in water. Flayins on TLC plates were visualised by their yellow fluorescence when illuminated by ultraviolet light at 366 nm. Luciferase assay of flavins was performed using the commercially-availablepreparation of Vibrio harveyii luciferase of Sigma. The reaction mixture contained 0.1 mg/ml luciferase preparation, 0.1 mg/ml bovine serum albumin, 0.2 mM n-decanal, 0.5 mM NADH and 1.5mM dithiothreitol. Assays were carried out at 24° C. and light emission was measured using a BioOrbit 1250 Luminometer (Labsystems (UK) Ltd., Basingstoke, U.K.). Deflavomorphinone reductase was prepared by ammonium sulphate treatment, as described by Husain and Massey (1978) Met. Enzymol. 53:429-437.
The liberated flavin comigrated with flavin mononucleotide (FMN) and not with flavin adenine dinucleotide (FAD) or riboflavin in two thin layer chromatography systems. The liberated flavin gave a positive result in the luciferase assay which is highly specific for FMN (Chappelle and Picciolo, Met. Enzymol (1971) 18B:381-385). […]

[5] = molecular target: T1, morphinone reductase; experiment: Coupled enzyme system (morphine dehydrogenase then morphinone reductase), HPLC analysis; format: biochemical, Pseudomonas putida M10; design: initiator Met absent
Description: Reverse-phase HPLC analysis was performed on a Waters component system (Millipore Waters U.K. Limited, Watford) consisting of a model 510 pump, a model 712 WISP autoinjector and a Waters 994 programmable photodiode array detector set to 235 nm and 280 nm, 0-1 V fsd. Separation of samples (50 μl ) was achieved on a 5 μm C18 Spherisorb ODS column (4.6×250mm) (Anachem limited, Luton) with an isocratic solvent system, delivered at a flow rate of 1 ml/min. The mobile phase consisted of filter-sterilised 15 mM KH2 PO4 (adjusted to pH 3.5 with 1 M H3 PO4) in 30% (v/v) HPLC grade acetonitrile (degassed for 40 min prior to use). Integrations were performed using Maxima 820 software and UV absorbance scans of resultant peaks were measured between 190 and 350 nm using the programmable photodiode array detector.
At regular intervals, 1 ml samples were removed and the reaction stopped by the addition of 2 μl glacial acetic acid (HPLC grade). The precipitated protein was subsequently pelleted at 13,000 rpm in an MSE microfuge.

[6] = tested on: COc1ccc2c3c1O[C@H]1C(=O)C=C[C@H]4[C@@H](C2)N(C)CC[C@]314; experiment: purified protein, by the assay type; conditions: 30.0 °C
[7] = tested on: COc1ccc2c3c1O[C@H]1C(=O)CC=C4[C@@H](C2)N(C)CC[C@]431; experiment: purified protein, by the assay type; conditions: 30.0 °C
[8] = tested on: NC(=O)C1=CN([C@@H]2O[C@H](COP(=O)(O)OP(=O)(O)OC[C@H]3O[C@@H](n4cnc5c(N)ncnc54)[C@H](O)[C@@H]3O)[C@@H](O)[C@H]2O)C=CC1; experiment: purified protein, by the assay type; conditions: 30.0 °C

Q: Which results are given for `O[C@H](CS)[C@H](O)CS` (racemic) [DTT, dithiothreitol]?
A: remaining activity at 1000 µM ([1]; 16 h 4°C.): 94%; remaining activity at 1000 µM ([1]; 0.5 h, 30 min 20°C.): 94%

Q: Which results are given for `O=C1C=CCCC1` [2-cyclohexen-1-one]?
A: Enzyme activity against compound as substrate [2]: Very slight activity; Inhibition of activity against codeinone ([3]; added to the standard assay at 1 mM): inhibited the reaction with codeinone

Q: `Oc1cccc2cccnc12` [8HQ, 8-hydroxyquinoline] was tested. Which “Activity as percentage of control activity” value (“Activity as percentage” for short) ([1]; morphinone reductase, 30 min, 50 µM) did it give?
A: The value was 94.

Q: And the “Activity as percentage” value ([1]; morphinone reductase, 960 min, 50 µM)?
A: The value was 91.

Q: How did the “Enzyme activity against compound as substrate” value (“Enzyme activity … as substrate” for short) [2] turn out when `COc1ccc2c3c1O[C@H]1C(=O)C=C[C@H]4[C@@H](C2)N(C)CC[C@]314` [Codeinone, codeinone] was run?
A: The value was “Activity was detected”.

Q: `O=S(=O)([O-])[O-].[Cu+2]` [CuSO4, copper sulphate] was tested. Which “Activity as percentage” value ([1]; 0.01 Mm, 30 min 20°C.) did it give?
A: Its value is 0%.

Q: And the “Inhibition of enzyme (in words)” value [1]?
A: Its value is “highly inhibitory”.

Q: For `O=C(O)CN(CCN(CC(=O)O)CC(=O)O)CC(=O)O` [EDTA, ethylenediaminetetraacetic acid], which remaining activity at 500 µM ([1]; 0.5 h) is on record?
A: The remaining activity at 500 µM was 100%.

Q: And the remaining activity at 500 µM ([1]; 16 h)?
A: The remaining activity at 500 µM was 97%.

Q: Which “Restoration of enzyme activity after incubation with flavin (in words)” value [4] does the source give for `Cc1cc2nc3c(=O)[nH]c(=O)nc-3n(C[C@H](O)[C@H](O)[C@H](O)COP(=O)(O)OP(=O)(O)OC[C@H]3O[C@@H](n4cnc5c(N)ncnc54)[C@H](O)[C@@H]3O)c2cc1C` [FAD, flavin adenine dinucleotide] here?
A: The value was “did not cause restoration”.

Q: `NC(=O)C1=CN([C@@H]2O[C@H](COP(=O)(O)OP(=O)(O)OC[C@H]3O[C@@H](n4cnc5c(N)ncnc54)[C@H](OP(=O)(O)O)[C@@H]3O)[C@@H](O)[C@H]2O)C=CC1` [NADPH] was tested. Which “Enzyme activity with alternative cofactor” value ([2]; NADPH replaced NADH) did it give?
A: The value was “No activity”.

Q: How did the “Enzyme activity … as substrate” value [2] turn out when `COc1ccc2c3c1O[C@H]1C(=O)CC=C4[C@@H](C2)N(C)CC[C@]431` [Neopinone, neopinone] was run?
A: The value was “Activity was detected”.

Q: For `COc1ccc2c3c1O[C@H]1[C@@H](O)C=C[C@H]4[C@@H](C2)N(C)CC[C@@]341` [codeine], which “Enzyme activity … as substrate” value [2] is on record?
A: Its value is “No activity”.

Q: `C[C@]12CCC(=O)C=C1CC[C@@H]1[C@@H]2C(=O)C[C@@]2(C)[C@H]1CC[C@]2(O)C(=O)CO` [cortisone] was tested. Which “Enzyme activity … as substrate” value [2] did it give?
A: The value was “No activity”.

Q: What about the “Inhibition of the reaction with codeinone” value [3] of the same compound?
A: Its value is “inhibit greatly”.

Q: `COc1ccc2c3c1O[C@H]1[C@@H](O)CC[C@H]4[C@@H](C2)N(C)CC[C@@]341` [dihydrocodeine] was tested. Which “Enzyme activity in the reverse direction” value [2] did it give?
A: The value was “No reverse reaction”.

Q: With `COc1ccc2c3c1O[C@H]1C(=O)CC[C@H]4[C@@H](C2)N(C)CC[C@]314` [hydrocodone] as the compound, how does the “Enzyme activity in the reverse direction” value [2] read?
A: Its value is “No activity in the reverse direction”.

Q: With `COc1ccc2c3c1O[C@H]1[C@H](O)C=C[C@H]4[C@@H](C2)N(C)CC[C@@]341` [isocodeine] as the compound, how does the “Enzyme activity … as substrate” value [2] read?
A: The value was “No activity”.

Q: Which “Enzyme activity … as substrate” value [5] does the source give for `CN1CC[C@]23c4c5ccc(O)c4O[C@H]2C(=O)C=C[C@H]3[C@H]1C5` [morphinone] here?
A: Its value is “Activity against morphinone was demonstrated”.

Q: `COc1ccc2c3c1O[C@H]1C(=O)CC[C@@]4(O)[C@@H](C2)N(C)CC[C@]314` [oxycodone] was tested. Which “Enzyme activity in the reverse direction” value [2] did it give?
A: Its value is “No reverse reaction”.

Q: How did the “Enzyme activity in the reverse direction” value [2] turn out when `CN1CC[C@]23c4c5ccc(O)c4O[C@H]2C(=O)CC[C@@]3(O)[C@H]1C5` [oxymorphone] was run?
A: The value was “No reverse reaction”.

Q: What does the source list for `O=C(O)c1cc[c]([Hg+])cc1.[OH-]` [pHMB, p-hydroxymercuribenzoate]?
A: Activity as percentage of control activity ([1]; 0.01 mM, 30 min 20°C.): 37%; Activity as percentage of control activity ([1]; 0.01 mM, 16 h 4°C.): 19%; Activity as percentage of control activity ([1]; 0.02 mM, 30 min 20°C.): 0%; Inhibition of enzyme (in words) [1]: highly inhibitory

Q: How did the “Enzyme activity … as substrate” value [2] turn out when `CC(=O)[C@H]1CC[C@H]2[C@@H]3CCC4=CC(=O)CC[C@]4(C)[C@H]3CC[C@]12C` [progesterone] was run?
A: Its value is “No activity”.

Q: What about the “Inhibition of the reaction with codeinone” value [3] of the same compound?
A: Its value is “inhibit greatly”.

Q: Which Km [6] does the source give for “morphinone reductase (Pseudomonas putida)” here?
A: The Km was 250 µM.

Q: And the Vmax [6]?
A: Its Vmax is 32.0 U/mg.

Q: And the kcat [6]?
A: Its kcat is 44.4 s⁻¹.

Q: And the kcat/Km [6]?
A: The kcat/Km was 178 s⁻¹ mM⁻¹.

Q: What about the Km [7] of the same compound?
A: The Km was 430 µM.

Q: And the Vmax [7]?
A: Its Vmax is 16.6 U/mg.

Q: And the kcat [7]?
A: The kcat was 23.0 s⁻¹.

Q: And the kcat/Km [7]?
A: Its kcat/Km is 53.5 s⁻¹ mM⁻¹.

Q: And the Km [8]?
A: Its Km is 50 µM.
